Test results reported in patent US20080009418A1, “Selective Inhibitors” (Alchemia LTD., priority 2004, published 2008).

Assays:
Human δ-opioid (DOP) = target: T1, Human δ-opioid (DOP) (Homo sapiens, UniProt P41143); experiment: Radioligand binding, human δ-opioid (DOP) membranes, FlashPlate, [3H]-Bremazocine; conditions: compound at 10 μM, [3H]-Bremazocine
T1 construct: purchased Perkin Elmer Biosignal
Outline: (§1)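 Cloned human receptor membranes were coated onto FlashPlate wells and incubated with radioligand and compound (added from a 0.5 mM DMSO daughter plate) for 1 hour at room temperature in the dark. Scintillation counting gave percent inhibition, with DMSO defining total and reference ligand defining non-specific binding.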

Human κ-Opioid (KOP) = target: T2, Human κ-Opioid (KOP) (Homo sapiens, UniProt P41145); experiment: Radioligand binding, human κ-opioid (KOP) membranes, filtration, [3H]-Diprenorphine; conditions: compound at 10 μM, [3H]-Diprenorphine
T2 construct: purchased Perkin Elmer Biosignal
Outline: (§2)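 Percent inhibition of radioligand binding measured on recombinant human membranes: NK1 with [125I]-Substance P, KOP with [3H]-Diprenorphine. Incubation 1 h at room temperature, then harvest onto 0.3% PEI-soaked filters, cold Tris-HCl pH 7.4 washes and scintillation counting; non-specific binding from reference ligand wells.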

Human neurokinin (NK1) = target: T3, Human neurokinin (NK1) (Homo sapiens, UniProt P25103); experiment: Radioligand binding, human neurokinin NK1 membranes, filtration, [125I]-Substance P; conditions: compound at 10 μM, [125I]-Substance P
T3 construct: purchased Perkin Elmer Biosignal
Outline: as §2

Human Melanocortin (MC3) = target: T4, Human Melanocortin (MC3) (Homo sapiens, UniProt P41968); experiment: Radioligand binding, human melanocortin MC3 membranes, FlashPlate, [125I]-NDP-αMSH; conditions: compound at 10 μM, [125I]-NDP-αMSH
T4 construct: purchased Perkin Elmer Biosignal
Outline: as §1

[1] = target: T5, Human melanin-concentrating hormone (MCH1) (Homo sapiens, UniProt Q99705); experiment: Radioligand binding, human melanin-concentrating hormone MCH1 membranes, FlashPlate, [125I]-S36057; conditions: compound at 10 μM; for A6: inhibition of radioligand binding, human melanin-concentrating hormone (MCH1) / A6 radioligand binding, percentage inhibition: [125I]-S36057
T5 construct: purchased Perkin Elmer Biosignal
Outline: as §1

Human Melanocortin (MC4) = target: T6, Human Melanocortin (MC4) (Homo sapiens, UniProt P32245); experiment: Radioligand binding, human melanocortin MC4 membranes, FlashPlate, [125I]-NDP-αMSH; conditions: compound at 10 μM, [125I]-NDP-αMSH
T6 construct: purchased Perkin Elmer Biosignal
Outline: as §1

Human μ-opioid (MOP) = target: T7, Human μ-opioid (MOP) (Homo sapiens, UniProt P35372); experiment: Radioligand binding, human μ-opioid (MOP) membranes, FlashPlate, [3H]-Naloxone; conditions: compound at 10 μM, [3H]-Naloxone
T7 construct: purchased Perkin Elmer Biosignal
Outline: as §1

Mouse urotensin (mUR2) = target: T8, Mouse urotensin (mUR2) (Mus musculus, UniProt Q8VIH9); experiment: Radioligand binding, mouse urotensin mUR2 membranes, FlashPlate, [125I]-Urotensin II; conditions: compound at 10 μM, [125I]-Urotensin II
T8 construct: purchased Perkin Elmer Biosignal
T8 sequence (Q8VIH9 1-385): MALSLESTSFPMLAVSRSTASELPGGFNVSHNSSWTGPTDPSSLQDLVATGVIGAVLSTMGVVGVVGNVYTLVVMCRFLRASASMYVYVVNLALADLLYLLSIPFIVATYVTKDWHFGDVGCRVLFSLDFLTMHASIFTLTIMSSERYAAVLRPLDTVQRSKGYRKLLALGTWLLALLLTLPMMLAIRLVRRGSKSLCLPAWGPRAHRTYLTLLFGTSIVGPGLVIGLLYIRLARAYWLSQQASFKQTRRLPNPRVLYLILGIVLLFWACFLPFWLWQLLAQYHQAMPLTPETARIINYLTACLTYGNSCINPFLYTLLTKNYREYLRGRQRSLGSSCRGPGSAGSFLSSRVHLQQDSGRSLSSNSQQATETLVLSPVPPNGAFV
Outline: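 Cloned mouse urotensin (mUR2) receptor membranes from Perkin Elmer Biosignal were immobilized in FlashPlate microplates using a proprietary coating. Each well got 19.5 μl buffer, then 0.5 μl of DMSO, reference ligand, or compound. Adding 5 μl of [125I]-Urotensin II, diluted to 5× final concentration in binding buffer, started binding. Plates were sealed with TopSeal-A and incubated 1 hour at room temperature in the dark. Wells were counted for 30 seconds each on a TopCount after a 60-second delay, and percentage inhibition was calculated.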

[2] = target: T9, Human neuropeptide Y (NPY-Y1) (Homo sapiens, UniProt P25929); experiment: Radioligand binding, human neuropeptide Y NPY-Y1 membranes, FlashPlate, [125I]-PYY; conditions: compound at 10 μM, [125I]-PYY
T9 construct: purchased Perkin Elmer Biosignal
T9 sequence (P25929 1-384): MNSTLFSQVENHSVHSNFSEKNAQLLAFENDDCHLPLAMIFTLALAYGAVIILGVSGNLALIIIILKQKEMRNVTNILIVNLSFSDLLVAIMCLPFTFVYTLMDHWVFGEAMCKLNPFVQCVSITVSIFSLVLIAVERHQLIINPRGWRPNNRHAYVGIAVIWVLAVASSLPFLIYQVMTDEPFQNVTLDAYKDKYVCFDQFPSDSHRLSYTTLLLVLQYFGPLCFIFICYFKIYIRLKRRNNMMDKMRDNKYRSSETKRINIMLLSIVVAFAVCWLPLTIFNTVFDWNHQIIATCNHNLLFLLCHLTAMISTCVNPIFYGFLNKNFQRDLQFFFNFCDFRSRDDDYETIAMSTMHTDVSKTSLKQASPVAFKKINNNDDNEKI
Outline: as §1

Human melanocortin (MC5) = target: T10, Human melanocortin (MC5) (Homo sapiens, UniProt P33032); experiment: Radioligand binding, human melanocortin MC5 membranes, FlashPlate, [125I]-NDP-αMSH; conditions: compound at 10 μM, [125I]-NDP-αMSH
T10 construct: purchased Perkin Elmer Biosignal
Outline: as §1

Human opioid (ORL1) = target: T11, Human opioid (ORL1) (Homo sapiens, UniProt P41146); experiment: Radioligand binding, human opioid ORL1 membranes, FlashPlate, [125I]-Nociceptin; conditions: compound at 10 μM, [125I]-Nociceptin
T11 construct: purchased Perkin Elmer Biosignal
Outline: as §1

T10 sequence (P33032 whole entry): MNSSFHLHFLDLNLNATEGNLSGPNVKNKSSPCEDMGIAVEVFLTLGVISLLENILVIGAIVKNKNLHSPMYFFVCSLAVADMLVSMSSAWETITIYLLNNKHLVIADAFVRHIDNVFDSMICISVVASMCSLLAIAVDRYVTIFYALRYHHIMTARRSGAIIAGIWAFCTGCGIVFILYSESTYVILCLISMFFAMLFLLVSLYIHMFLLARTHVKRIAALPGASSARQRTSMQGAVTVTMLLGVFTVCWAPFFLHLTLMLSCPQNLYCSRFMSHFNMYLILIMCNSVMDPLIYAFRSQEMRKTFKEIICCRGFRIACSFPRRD
T11 sequence (P41146 whole entry): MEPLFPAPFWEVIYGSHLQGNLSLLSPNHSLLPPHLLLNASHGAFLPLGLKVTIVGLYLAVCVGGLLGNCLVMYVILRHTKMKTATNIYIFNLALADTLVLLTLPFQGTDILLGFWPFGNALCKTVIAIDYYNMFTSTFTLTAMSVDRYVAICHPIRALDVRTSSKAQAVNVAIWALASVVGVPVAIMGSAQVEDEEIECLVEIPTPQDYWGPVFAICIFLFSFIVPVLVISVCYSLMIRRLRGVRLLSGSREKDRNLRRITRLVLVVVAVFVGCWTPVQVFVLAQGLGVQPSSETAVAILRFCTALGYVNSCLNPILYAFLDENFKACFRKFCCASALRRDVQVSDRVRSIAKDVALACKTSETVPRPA
T4 sequence (P41968 whole entry): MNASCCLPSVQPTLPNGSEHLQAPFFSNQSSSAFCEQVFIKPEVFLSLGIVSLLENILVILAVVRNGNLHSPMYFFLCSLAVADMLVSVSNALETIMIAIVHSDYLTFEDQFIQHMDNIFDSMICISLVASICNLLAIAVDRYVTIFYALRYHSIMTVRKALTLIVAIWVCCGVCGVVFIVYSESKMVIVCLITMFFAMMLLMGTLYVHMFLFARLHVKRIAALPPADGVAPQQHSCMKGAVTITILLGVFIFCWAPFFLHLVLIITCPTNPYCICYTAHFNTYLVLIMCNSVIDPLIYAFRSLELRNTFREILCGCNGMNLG
T7 sequence (P35372 whole entry): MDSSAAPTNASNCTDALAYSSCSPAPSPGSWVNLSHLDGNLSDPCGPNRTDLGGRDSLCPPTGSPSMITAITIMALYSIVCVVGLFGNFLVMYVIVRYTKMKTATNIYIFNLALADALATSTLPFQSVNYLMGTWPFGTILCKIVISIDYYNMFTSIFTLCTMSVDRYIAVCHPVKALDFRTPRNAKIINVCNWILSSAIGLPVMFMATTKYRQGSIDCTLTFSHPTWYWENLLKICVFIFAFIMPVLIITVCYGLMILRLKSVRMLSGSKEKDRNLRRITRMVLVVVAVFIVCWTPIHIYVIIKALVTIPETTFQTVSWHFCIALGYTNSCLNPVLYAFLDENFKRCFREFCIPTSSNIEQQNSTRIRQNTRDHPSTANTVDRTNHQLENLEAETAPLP
T5 sequence (Q99705 whole entry): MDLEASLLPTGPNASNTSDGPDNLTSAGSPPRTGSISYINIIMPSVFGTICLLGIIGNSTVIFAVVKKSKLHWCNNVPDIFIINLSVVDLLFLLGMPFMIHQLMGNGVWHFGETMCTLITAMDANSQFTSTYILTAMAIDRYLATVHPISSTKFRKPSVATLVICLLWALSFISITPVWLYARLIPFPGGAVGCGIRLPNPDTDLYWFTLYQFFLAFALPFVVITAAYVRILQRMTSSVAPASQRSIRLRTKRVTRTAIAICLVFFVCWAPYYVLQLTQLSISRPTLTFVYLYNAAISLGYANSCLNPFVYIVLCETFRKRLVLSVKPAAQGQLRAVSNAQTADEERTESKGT
T2 sequence (P41145 whole entry): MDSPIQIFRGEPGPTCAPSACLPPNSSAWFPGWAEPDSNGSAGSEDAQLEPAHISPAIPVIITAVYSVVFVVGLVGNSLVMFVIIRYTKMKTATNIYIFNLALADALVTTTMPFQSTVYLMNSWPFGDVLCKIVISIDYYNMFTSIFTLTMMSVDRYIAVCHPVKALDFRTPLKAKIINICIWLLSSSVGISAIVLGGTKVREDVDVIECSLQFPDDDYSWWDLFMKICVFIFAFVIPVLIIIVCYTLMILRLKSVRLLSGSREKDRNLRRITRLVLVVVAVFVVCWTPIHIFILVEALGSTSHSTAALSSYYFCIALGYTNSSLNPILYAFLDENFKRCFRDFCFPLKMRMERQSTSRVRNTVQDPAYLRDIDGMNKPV
T3 sequence (P25103 whole entry): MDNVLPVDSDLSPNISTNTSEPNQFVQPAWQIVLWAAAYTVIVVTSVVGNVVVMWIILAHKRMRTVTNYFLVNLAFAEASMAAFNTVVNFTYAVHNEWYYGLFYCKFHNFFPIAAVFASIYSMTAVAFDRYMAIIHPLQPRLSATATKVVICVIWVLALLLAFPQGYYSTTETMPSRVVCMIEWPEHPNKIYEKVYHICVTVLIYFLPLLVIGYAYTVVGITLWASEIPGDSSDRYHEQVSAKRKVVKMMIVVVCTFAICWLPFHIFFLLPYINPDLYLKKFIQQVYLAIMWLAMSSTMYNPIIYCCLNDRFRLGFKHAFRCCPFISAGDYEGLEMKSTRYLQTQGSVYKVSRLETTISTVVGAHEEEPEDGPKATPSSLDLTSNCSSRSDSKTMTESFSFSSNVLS
T1 sequence (P41143 whole entry): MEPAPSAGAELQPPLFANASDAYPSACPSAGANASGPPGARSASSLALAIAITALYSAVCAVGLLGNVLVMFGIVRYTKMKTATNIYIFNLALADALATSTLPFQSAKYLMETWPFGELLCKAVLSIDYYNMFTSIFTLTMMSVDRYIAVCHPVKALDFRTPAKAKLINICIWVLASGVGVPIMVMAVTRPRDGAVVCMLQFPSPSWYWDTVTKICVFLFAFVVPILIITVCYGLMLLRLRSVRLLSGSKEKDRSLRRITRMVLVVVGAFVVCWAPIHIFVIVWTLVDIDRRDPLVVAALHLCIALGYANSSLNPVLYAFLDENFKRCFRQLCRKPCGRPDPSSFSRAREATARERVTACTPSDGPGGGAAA
T6 sequence (P32245 whole entry): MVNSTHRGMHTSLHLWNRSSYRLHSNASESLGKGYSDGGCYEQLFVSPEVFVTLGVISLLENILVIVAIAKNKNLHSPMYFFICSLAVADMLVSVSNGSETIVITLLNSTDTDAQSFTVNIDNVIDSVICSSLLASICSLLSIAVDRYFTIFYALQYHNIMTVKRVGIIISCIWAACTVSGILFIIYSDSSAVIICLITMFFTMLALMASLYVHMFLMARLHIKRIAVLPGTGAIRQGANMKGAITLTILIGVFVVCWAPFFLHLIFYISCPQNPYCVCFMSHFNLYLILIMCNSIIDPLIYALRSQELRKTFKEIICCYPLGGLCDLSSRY

Compound	A1: inhibition of radioligand binding, human δ-opioid (DOP) (Human δ-opioid (DOP))	A2: inhibition of radioligand binding, human κ-opioid (KOP) (Human κ-Opioid (KOP))	A8: inhibition of radioligand binding, human neurokinin (NK1) (Human neurokinin (NK1))	A3: inhibition of radioligand binding, human melanocortin (MC3) (Human Melanocortin (MC3))	A6: inhibition of radioligand binding, human melanin-concentrating hormone (MCH1) [1]	A4: inhibition of radioligand binding, human melanocortin (MC4) (Human Melanocortin (MC4))	A7: inhibition of radioligand binding, human μ-opioid (MOP) (Human μ-opioid (MOP))	A11: inhibition of radioligand binding, mouse urotensin (mUR2) (Mouse urotensin (mUR2))	A9: inhibition of radioligand binding, human neuropeptide Y (NPY-Y1) [2]	A5: inhibition of radioligand binding, human melanocortin (MC5) (Human melanocortin (MC5))	A10: inhibition of radioligand binding, human opioid (ORL1) (Human opioid (ORL1))	A1 radioligand binding, percentage inhibition (Human δ-opioid (DOP))	A2 radioligand binding, percentage inhibition (Human κ-Opioid (KOP))	A8 radioligand binding, percentage inhibition (Human neurokinin (NK1))	A3 radioligand binding, percentage inhibition (Human Melanocortin (MC3))	A6 radioligand binding, percentage inhibition [1]	A4 radioligand binding, percentage inhibition (Human Melanocortin (MC4))	A7 radioligand binding, percentage inhibition (Human μ-opioid (MOP))	A11 radioligand binding, percentage inhibition (Mouse urotensin (mUR2))	A9 radioligand binding, percentage inhibition [2]	further results
NCCCC(=O)NC1C(OCc2ccccc2)OC(COCc2ccc(Cl)cc2)C(O)C1OCc1ccc2ccccc2c1 (stereo not shown) [compound 377]	− (“−” indicates less than 50% inhibition at 10 μM)	− (“−” indicates less than 50% inhibition at 10 μM)	+ (“+” indicates greater than 50% inhibition at 10 μM)	+ (“+” indicates greater than 50% inhibition at 10 μM)	− (“−” indicates less than 50% inhibition at 10 μM)	+ (“+” indicates greater than 50% inhibition at 10 μM)	− (“−” indicates less than 50% inhibition at 10 μM)	− (“−” indicates less than 50% inhibition at 10 μM)	− (“−” indicates less than 50% inhibition at 10 μM)	+ (“+” indicates greater than 50% inhibition at 10 μM)	− (“−” indicates less than 50% inhibition at 10 μM)	–	–	–	–	–	–	–	–	–	–
COCC1OC(OCCc2ccccc2)C(NC(=O)CCCN)C(OCc2ccccc2)C1O (stereo not shown) [compound 217]	–	–	–	–	–	–	–	–	–	–	–	–	–	–	–	–	–	–	–	–	A1: inhibition of radioligand binding (Human δ-opioid (DOP); FlashPlate): − (“−” indicates less than 50% inhibition at 10 μM); A2: inhibition of radioligand binding (Human κ-Opioid (KOP); filtration): − (“−” indicates less than 50% inhibition at 10 μM); A8: inhibition of radioligand binding (Human neurokinin (NK1); filtration): + (“+” indicates greater than 50% inhibition at 10 μM); A3: inhibition of radioligand binding (Human Melanocortin (MC3); FlashPlate): − (“−” indicates less than 50% inhibition at 10 μM); A6: inhibition of radioligand binding ([1]; [125I]-S36057, FlashPlate): − (“−” indicates less than 50% inhibition at 10 μM); A4: inhibition of radioligand binding (Human Melanocortin (MC4); FlashPlate): − (“−” indicates less than 50% inhibition at 10 μM); A7: inhibition of radioligand binding (Human μ-opioid (MOP); FlashPlate): − (“−” indicates less than 50% inhibition at 10 μM); A11: inhibition of radioligand binding (Mouse urotensin (mUR2); FlashPlate): − (“−” indicates less than 50% inhibition at 10 μM); A9: inhibition of radioligand binding ([2]; FlashPlate): − (“−” indicates less than 50% inhibition at 10 μM); A5: inhibition of radioligand binding (Human melanocortin (MC5); FlashPlate): − (“−” indicates less than 50% inhibition at 10 μM); A10: inhibition of radioligand binding (Human opioid (ORL1); FlashPlate): − (“−” indicates less than 50% inhibition at 10 μM)
CO[C@H]1[C@H](O)[C@@H](COCc2ccc(Cl)cc2)OC(OCc2ccc(Cl)cc2)[C@@H]1NC(=O)CCNC(=N)N (stereo partly shown) [compound 106]	–	–	–	–	–	–	–	–	–	–	–	− (“−” indicates less than 50% inhibition at 10 μM)	− (“−” indicates less than 50% inhibition at 10 μM)	+ (“+” indicates greater than 50% inhibition at 10 μM)	+ (“+” indicates greater than 50% inhibition at 10 μM)	− (“−” indicates less than 50% inhibition at 10 μM)	+ (“+” indicates greater than 50% inhibition at 10 μM)	− (“−” indicates less than 50% inhibition at 10 μM)	− (“−” indicates less than 50% inhibition at 10 μM)	− (“−” indicates less than 50% inhibition at 10 μM)	A5 radioligand binding, percentage inhibition (Human melanocortin (MC5)): + (“+” indicates greater than 50% inhibition at 10 μM); A10 radioligand binding, percentage inhibition (Human opioid (ORL1)): − (“−” indicates less than 50% inhibition at 10 μM)
CO[C@H]1[C@H](O)[C@@H](COCc2ccc3ccccc3c2)OC(OCc2ccc(Cl)cc2)[C@@H]1NC(=O)C(N)CN (stereo partly shown) [compound 351]	− (“−” indicates less than 50% inhibition at 10 μM)	− (“−” indicates less than 50% inhibition at 10 μM)	+ (“+” indicates greater than 50% inhibition at 10 μM)	− (“−” indicates less than 50% inhibition at 10 μM)	− (“−” indicates less than 50% inhibition at 10 μM)	− (“−” indicates less than 50% inhibition at 10 μM)	− (“−” indicates less than 50% inhibition at 10 μM)	− (“−” indicates less than 50% inhibition at 10 μM)	− (“−” indicates less than 50% inhibition at 10 μM)	− (“−” indicates less than 50% inhibition at 10 μM)	− (“−” indicates less than 50% inhibition at 10 μM)	–	–	–	–	–	–	–	–	–	–
CO[C@H]1[C@H](O)[C@@H](COCc2ccc(Cl)cc2)OC(OCc2ccccc2)[C@@H]1NC(=O)CCCN (stereo partly shown) [compound 92]	–	–	–	–	–	–	–	–	–	–	–	− (“−” indicates less than 50% inhibition at 10 μM)	− (“−” indicates less than 50% inhibition at 10 μM)	+ (“+” indicates greater than 50% inhibition at 10 μM)	− (“−” indicates less than 50% inhibition at 10 μM)	− (“−” indicates less than 50% inhibition at 10 μM)	− (“−” indicates less than 50% inhibition at 10 μM)	− (“−” indicates less than 50% inhibition at 10 μM)	− (“−” indicates less than 50% inhibition at 10 μM)	− (“−” indicates less than 50% inhibition at 10 μM)	A5 radioligand binding, percentage inhibition (Human melanocortin (MC5)): − (“−” indicates less than 50% inhibition at 10 μM); A10 radioligand binding, percentage inhibition (Human opioid (ORL1)): − (“−” indicates less than 50% inhibition at 10 μM)
